One assay addresses ATR/ATRIP (Homo sapiens, UniProt Q13535). Briefly: Inhibition of recombinant human full length ATR/ATRIP expressed in mammalian expression system using c-Myc-tagged p53 as substrate incubated for 15 mins followed by substrate addition measured after 25 to 35 mins by TR-FRET assay.
For assay [1], the target named is T1, Serine/threonine-protein kinase ATR (Homo sapiens, UniProt Q13535). Briefly: Inhibition of ATR in human HT29 cells assessed as reduction in Chk1 phosphorylation at Ser345 residues after 4 hrs by Alexa Fluor 488 staining based fluorescence assay. Format: cell-based.
Assay [2] has as its target T1, Serine/threonine-protein kinase ATR. In words: Inhibition of ATR in human U2OS cells harboring ER-LBD fused TopBPI activation domain (978 to 1286 residues) assessed as reduction in 4-OHT-mediated nuclear translocation of TopBPI fragment by measuring gammaH2AX level after 24 hrs by Alexa Fluor 488 staining based fluorescence assay. It counts as cell-based.

What is called IC50 is the concentration that inhibits the measured activity by half.

SMILES strings stand for the structures.

ATR/ATRIP, sequence (Q13535 whole entry): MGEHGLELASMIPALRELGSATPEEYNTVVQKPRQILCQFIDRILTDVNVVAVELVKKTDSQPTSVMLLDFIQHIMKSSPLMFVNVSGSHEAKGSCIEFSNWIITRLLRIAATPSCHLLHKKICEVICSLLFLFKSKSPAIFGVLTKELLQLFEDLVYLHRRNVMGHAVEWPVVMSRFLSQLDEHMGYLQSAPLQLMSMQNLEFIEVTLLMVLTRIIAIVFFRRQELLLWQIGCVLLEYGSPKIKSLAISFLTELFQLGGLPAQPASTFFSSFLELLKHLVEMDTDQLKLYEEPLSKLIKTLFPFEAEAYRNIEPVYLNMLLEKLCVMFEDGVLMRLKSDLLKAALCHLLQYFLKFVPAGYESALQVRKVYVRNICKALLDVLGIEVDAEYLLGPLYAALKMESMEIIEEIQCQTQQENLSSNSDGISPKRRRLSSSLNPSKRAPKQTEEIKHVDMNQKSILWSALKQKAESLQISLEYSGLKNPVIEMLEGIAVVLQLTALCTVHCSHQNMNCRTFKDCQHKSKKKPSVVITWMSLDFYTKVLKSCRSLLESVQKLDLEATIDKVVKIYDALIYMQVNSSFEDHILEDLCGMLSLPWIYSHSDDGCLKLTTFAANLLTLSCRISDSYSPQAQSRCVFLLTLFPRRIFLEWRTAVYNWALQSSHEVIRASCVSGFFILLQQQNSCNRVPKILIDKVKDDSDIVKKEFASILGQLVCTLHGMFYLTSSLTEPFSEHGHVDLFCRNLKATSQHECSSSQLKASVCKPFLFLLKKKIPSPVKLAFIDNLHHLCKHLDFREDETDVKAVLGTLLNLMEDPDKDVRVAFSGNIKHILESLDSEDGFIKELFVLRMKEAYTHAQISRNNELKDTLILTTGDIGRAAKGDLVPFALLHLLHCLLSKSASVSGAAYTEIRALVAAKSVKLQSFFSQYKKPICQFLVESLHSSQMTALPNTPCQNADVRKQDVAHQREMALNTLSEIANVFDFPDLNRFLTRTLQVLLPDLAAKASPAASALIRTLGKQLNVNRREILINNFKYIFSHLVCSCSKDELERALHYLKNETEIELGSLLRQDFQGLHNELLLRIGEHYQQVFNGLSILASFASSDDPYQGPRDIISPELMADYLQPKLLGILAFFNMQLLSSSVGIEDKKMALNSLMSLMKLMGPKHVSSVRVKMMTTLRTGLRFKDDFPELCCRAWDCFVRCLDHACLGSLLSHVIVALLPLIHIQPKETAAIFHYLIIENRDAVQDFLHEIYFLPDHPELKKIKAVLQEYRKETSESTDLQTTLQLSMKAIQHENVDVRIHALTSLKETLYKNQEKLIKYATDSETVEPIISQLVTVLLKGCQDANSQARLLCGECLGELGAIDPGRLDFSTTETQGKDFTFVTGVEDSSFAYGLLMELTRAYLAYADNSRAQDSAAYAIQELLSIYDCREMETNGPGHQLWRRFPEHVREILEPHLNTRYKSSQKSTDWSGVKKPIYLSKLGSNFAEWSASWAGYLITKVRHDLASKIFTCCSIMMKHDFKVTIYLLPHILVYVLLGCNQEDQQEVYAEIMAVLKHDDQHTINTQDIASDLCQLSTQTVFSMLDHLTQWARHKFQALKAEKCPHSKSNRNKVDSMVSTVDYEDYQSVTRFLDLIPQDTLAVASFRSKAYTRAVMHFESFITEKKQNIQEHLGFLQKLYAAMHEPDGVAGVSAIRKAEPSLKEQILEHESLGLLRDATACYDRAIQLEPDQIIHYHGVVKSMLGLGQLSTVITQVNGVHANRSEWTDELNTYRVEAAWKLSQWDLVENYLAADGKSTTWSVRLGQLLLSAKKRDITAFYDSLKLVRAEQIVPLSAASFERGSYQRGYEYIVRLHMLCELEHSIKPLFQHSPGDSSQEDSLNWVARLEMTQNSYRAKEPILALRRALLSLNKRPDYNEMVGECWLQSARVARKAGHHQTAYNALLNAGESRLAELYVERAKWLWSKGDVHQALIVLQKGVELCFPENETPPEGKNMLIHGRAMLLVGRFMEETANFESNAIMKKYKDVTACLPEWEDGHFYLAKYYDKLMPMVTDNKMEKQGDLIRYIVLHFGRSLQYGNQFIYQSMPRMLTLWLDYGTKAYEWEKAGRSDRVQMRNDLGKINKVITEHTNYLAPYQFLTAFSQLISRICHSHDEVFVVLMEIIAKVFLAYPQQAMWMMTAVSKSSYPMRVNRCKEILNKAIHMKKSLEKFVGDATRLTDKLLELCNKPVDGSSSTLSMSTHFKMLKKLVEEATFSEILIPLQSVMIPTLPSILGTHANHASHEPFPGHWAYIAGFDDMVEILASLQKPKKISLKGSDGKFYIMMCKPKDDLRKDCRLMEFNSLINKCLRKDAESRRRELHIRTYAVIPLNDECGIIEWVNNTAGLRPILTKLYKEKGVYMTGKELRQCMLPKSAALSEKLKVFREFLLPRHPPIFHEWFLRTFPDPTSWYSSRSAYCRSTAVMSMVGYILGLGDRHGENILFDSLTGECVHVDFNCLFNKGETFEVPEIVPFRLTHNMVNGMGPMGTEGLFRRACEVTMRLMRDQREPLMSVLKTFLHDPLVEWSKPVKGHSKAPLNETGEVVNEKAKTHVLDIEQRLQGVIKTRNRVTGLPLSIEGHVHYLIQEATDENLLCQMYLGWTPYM
ATR/ATRIP, sequence (Q8WXE1 whole entry, further chain): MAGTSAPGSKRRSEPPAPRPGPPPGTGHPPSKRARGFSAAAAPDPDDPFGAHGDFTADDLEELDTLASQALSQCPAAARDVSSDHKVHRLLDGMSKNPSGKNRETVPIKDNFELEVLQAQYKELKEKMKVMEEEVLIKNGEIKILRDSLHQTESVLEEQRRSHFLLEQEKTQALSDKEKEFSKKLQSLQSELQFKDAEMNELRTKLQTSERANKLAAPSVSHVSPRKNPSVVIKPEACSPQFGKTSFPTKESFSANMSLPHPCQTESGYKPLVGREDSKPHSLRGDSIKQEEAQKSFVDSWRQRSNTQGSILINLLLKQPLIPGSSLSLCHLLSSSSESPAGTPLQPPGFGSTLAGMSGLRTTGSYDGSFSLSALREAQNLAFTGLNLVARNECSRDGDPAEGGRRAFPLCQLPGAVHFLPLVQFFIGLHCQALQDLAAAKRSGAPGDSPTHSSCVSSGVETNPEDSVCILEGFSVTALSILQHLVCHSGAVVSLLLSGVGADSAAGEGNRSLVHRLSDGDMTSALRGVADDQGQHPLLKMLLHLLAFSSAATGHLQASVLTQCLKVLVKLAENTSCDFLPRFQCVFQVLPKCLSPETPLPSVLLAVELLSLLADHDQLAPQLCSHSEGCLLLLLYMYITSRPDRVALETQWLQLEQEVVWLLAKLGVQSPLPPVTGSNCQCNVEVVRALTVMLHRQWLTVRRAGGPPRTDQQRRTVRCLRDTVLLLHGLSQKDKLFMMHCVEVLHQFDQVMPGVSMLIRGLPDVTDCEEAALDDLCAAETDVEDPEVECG
T1 sequence (Q13535 whole entry, the tested form may be a part): as the sequence (Q13535 whole entry) above

Turning to `CNc1cnc2[nH]ccc2c1-c1nc2c(c(C(C)(C)O)n1)OC[C@@H]1COC[C@@H](C)N21`, the concentration for half-maximal inhibition (IC50) at ATR/ATRIP is less than 0.001 µM; in assay [1], 0.01 to 0.1 µM; in assay [2], 0.01 to 0.1 µM.
As for `C[C@@H]1COC[C@H]2COc3c(nc(N(C)c4ccn[nH]4)nc3C(C)(C)S(C)(=O)=O)N21`, the half-maximal inhibitory concentration (IC50) at ATR/ATRIP was in the range of 0.01 to 0.1 µM.
Regarding `CCNc1cnc2[nH]ccc2c1-c1nc2c(c(C(C)(C)S(C)(=O)=O)n1)OC[C@@H]1COC[C@@H](C)N21`, the half-maximal inhibitory concentration (IC50) at ATR/ATRIP fell in the range of 0.001 to 0.01 µM; in assay [1] it was 0.01 to 0.1 µM.
For the compound `CNc1nccn1-c1nc2c(c(C(C)(C)S(C)(=O)=O)n1)OC[C@@H]1COC[C@@H](C)N21`, the IC50 lay in the range of 0.01 to 0.1 µM at ATR/ATRIP and 0.1 to 1 µM in assay [2].
Consider `CNc1cnc2[nH]ccc2c1-c1nc2c(c(C(C)(C)S(C)(=O)=O)n1)OC[C@@H]1COC[C@@H](C)N21`, for which the values for the 50% inhibitory concentration (IC50) (at ATR/ATRIP; in assay [1]; in assay [2]) were less than 0.001 µM, less than 0.01 µM and 0.01 to 0.1 µM, respectively.
For `CNc1nc2ccccc2n1-c1nc2c(c(C(C)(C)S(C)(=O)=O)n1)OC[C@@H]1COC[C@@H](C)N21`, the IC50 at ATR/ATRIP was less than 0.001 µM; in assay [1], less than 0.01 µM; in assay [2] it was less than 0.01 µM.

The values are drawn from ChEMBL document CHEMBL4251726, “ATR Inhibitors as Potential Treatment for Cancers” (ACS Med Chem Lett, 2018).
